Values belong to the compound of their own block, whether it stands above or below them.
Columns and labels:
SYK = target: T1, SYK (Homo sapiens, UniProt P43405); experiment: SYK flash plate assay (enzyme assay); format: biochemical
T1 construct: 2.5 nM SYK, 400 nM Biotin-Aha-Aha-KEDPDYEWPSAKK
How it was run: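 Radiometric Flashplate format: biotinylated peptide substrate (400 nM) and 33P-labelled ATP (10 μM) react with 2.5 nM enzyme for 1 hour at 30 °C in Hepes buffer, pH 7.5. After EDTA quench and washing, counts are taken; staurosporine defines non-specific signal, and IC50 values are derived.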

GCN2 = GCN2 (Homo sapiens, UniProt Q9P2K8); experiment: GCN2 enzyme assay; format: biochemical
Chain of GCN2 (Q9P2K8 whole entry): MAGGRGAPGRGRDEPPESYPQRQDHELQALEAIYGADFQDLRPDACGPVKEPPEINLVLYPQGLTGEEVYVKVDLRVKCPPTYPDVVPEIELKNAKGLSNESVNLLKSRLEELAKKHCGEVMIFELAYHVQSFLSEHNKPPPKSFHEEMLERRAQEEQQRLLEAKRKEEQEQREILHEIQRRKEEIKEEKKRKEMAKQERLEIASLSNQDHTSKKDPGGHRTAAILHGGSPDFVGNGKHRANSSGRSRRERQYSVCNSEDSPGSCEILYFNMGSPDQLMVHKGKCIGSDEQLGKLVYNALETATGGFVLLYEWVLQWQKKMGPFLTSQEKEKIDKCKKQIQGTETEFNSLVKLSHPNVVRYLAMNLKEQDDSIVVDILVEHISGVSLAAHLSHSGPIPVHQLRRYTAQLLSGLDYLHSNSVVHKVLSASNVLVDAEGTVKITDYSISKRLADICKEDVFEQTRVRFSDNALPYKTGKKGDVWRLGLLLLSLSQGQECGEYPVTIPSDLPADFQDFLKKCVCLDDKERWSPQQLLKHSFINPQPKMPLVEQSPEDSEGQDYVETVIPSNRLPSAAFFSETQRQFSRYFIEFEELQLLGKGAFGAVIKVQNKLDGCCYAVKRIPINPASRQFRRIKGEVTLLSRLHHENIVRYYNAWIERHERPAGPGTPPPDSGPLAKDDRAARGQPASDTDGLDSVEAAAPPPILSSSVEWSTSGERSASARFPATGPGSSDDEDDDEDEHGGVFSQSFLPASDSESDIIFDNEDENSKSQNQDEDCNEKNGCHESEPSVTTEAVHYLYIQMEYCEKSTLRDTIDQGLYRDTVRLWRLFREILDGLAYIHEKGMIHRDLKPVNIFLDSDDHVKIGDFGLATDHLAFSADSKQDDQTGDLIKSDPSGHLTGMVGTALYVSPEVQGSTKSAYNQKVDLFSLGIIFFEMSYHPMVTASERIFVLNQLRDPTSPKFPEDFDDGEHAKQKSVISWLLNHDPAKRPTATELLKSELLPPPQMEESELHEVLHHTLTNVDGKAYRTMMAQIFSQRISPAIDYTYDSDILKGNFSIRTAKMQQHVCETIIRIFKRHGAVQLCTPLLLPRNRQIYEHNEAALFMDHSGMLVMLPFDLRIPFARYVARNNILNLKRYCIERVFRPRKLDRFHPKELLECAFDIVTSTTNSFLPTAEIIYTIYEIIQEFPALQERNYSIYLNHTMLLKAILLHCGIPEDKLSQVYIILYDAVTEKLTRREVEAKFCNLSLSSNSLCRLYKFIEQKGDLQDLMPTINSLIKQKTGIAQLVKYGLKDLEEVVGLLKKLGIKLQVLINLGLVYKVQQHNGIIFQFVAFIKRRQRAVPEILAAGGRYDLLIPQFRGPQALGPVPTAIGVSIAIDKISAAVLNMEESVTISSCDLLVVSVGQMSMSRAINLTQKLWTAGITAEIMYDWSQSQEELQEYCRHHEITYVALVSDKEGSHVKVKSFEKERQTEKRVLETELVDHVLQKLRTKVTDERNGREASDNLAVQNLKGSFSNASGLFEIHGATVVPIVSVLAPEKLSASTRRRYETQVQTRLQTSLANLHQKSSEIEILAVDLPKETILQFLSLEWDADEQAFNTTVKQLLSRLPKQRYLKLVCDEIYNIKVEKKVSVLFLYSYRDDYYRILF

SMILES: COc1ccc(Nc2nc3c(-c4cnn(C)c4)nccn3n2)cc1 [C2, (4-Methoxy-phenyl)-[8-(1-methyl-1H-pyrazol-4-yl)-[1,2,4]triazolo[1,5-a]pyrazin-2-yl]-amine]
- IC50 (SYK): 300 to 3000 nM
- IC50 (GCN2): 3000 to 50000 nM

SMILES: COc1ccc(Nc2nc3c(-c4cnn(C)c4)nccn3n2)cc1OC [C6, (3,4-Dimethoxy-phenyl)-[8-(1-methyl-1H-pyrazol-4-yl)-[1,2,4]triazolo[1,5-a]pyrazin-2yl]-amine]
- IC50 (SYK): 300 to 3000 nM
- IC50 (GCN2): 300 to 3000 nM

SMILES: COc1cccc(Nc2nc3c(-c4cnn(C)c4)nccn3n2)c1 [C8, (3-Methoxy-phenyl)-[8-(1-methyl-1H-pyrazol-4-yl)-[1,2,4]triazolo[1,5-a]pyrazin-2-yl]-amine]
- IC50 (SYK): 3000 to 50000 nM
- IC50 (GCN2): 3000 to 50000 nM

SMILES: Cn1cc(-c2nccn3nc(Nc4ccc5cn[nH]c5c4)nc23)cn1 [C12, (1H-Indazol-6-yl)-[8-(1-methyl-1H-pyrazol-4-yl)-[1,2,4]triazolo[1,5-a]pyrazin-2-yl]-amine]
- IC50 (SYK): 100 to 300 nM
- IC50 (GCN2): 3000 to 50000 nM

SMILES: Cn1cc(-c2nccn3nc(Nc4cccc(S(N)(=O)=O)c4)nc23)cn1 [C14, 3-[8-(1-Methyl-1H-pyrazol-4-yl)-[1,2,4]triazolo[1,5-a]pyrazin-2-ylamino]-benzenesulfonamide]
- IC50 (SYK): 3000 to 50000 nM
- IC50 (GCN2): 300 to 3000 nM

SMILES: Cn1cc(-c2nccn3nc(Nc4ccc(S(N)(=O)=O)cc4)nc23)cn1 [C16, 4-[8-(1-Methyl-1H-pyrazol-4-yl)-[1,2,4]triazolo[1,5-a]pyrazin-2-ylamino]-benzenesulfonamide]
- IC50 (SYK): 300 to 3000 nM
- IC50 (GCN2): 3000 to 50000 nM

SMILES: Cn1cc(-c2nccn3nc(Nc4cccc(N5CCOCC5)c4)nc23)cn1 [C18, [8-(1-Methyl-1H-pyrazol-4-yl)-[1,2,4]triazolo[1,5-a]pyrazin-2-yl]-(3-morpholin-4-yl-phenyl)-amine]
- IC50 (SYK): 300 to 3000 nM
- IC50 (GCN2): 3000 to 50000 nM

SMILES: Cn1cc(-c2nccn3nc(Nc4ccc5cnn(C)c5c4)nc23)cn1 [C21, (1-Methyl-1H-indazol-6-yl)-[8-(1-methyl-1H-pyrazol-4-yl)-[1,2,4]triazolo[1,5-a]pyrazin-2-yl]-amine]
- IC50 (SYK): 300 to 3000 nM
- IC50 (GCN2): 3000 to 50000 nM

SMILES: Cn1cc(-c2nccn3nc(Nc4ccc(S(C)(=O)=O)cc4)nc23)cn1 [C23, (4-Methanesulfonyl-phenyl)-[8-(1-methyl-1H-pyrazol-4-yl)-[1,2,4]triazolo[1,5-a]pyrazin-2-yl]-amine]
- IC50 (SYK): 300 to 3000 nM
- IC50 (GCN2): 3000 to 50000 nM

SMILES: Cn1cc(Nc2nc3c(-c4cnn(C)c4)nccn3n2)cn1 [C26, (1-Methyl-1H-pyrazol-4-yl)-[8-(1-methyl-1H-pyrazol-4-yl)-[1,2,4]triazolo[1,5-a]pyrazin-2-yl]-amine]
- IC50 (SYK): 300 to 3000 nM
- IC50 (GCN2): 3000 to 50000 nM

SMILES: CC1(C)C(=O)Nc2cc(Nc3nc4c(NC5CN6CCC5CC6)nccn4n3)ccc21 (stereo not shown) [E135, 6-[8-(1-aza-bicyclo[2.2.2]oct-3-ylamino)-[1,2,4]triazolo[1,5-a]pyrazin-2-ylamino]-3,3-dimethyl-1,3-dihydro-indol-2-one]
- IC50 (SYK): < 100 nM

The remaining lines, values ahead:

- IC50 (SYK): < 100 nM
SMILES: CC1(C)C(=O)Nc2cc(Nc3nc4c(N5CCc6ccc(C(N)=O)cc65)nccn4n3)ccc21 [E131, 1-[2-(3,3-Dimethyl-2-oxo-2,3-dihydro-1H-indol-6-ylamino)-[1,2,4]triazolo[1,5-a]pyrazin-8-yl]-2,3-dihydro-1H-indole-6-carboxylic acid amide]

- IC50 (SYK): 300 to 3000 nM
SMILES: CC1(C)C(=O)Nc2cc(Nc3nc4c(-c5cc6n(n5)CCOC6)nccn4n3)ccc21 [E132, 6-[8-(6,7-Dihydro-4H-pyrazolo[5,1-c][1,4]oxazin-2-yl)-[1,2,4]triazolo[1,5-a]pyrazin-2-ylamino]-3,3-dimethyl-1,3-dihydro-indol-2-one]

- IC50 (SYK): < 100 nM
SMILES: CC1(C)C(=O)Nc2cc(Nc3nc4c(N5CCc6ccc(C#N)cc65)nccn4n3)ccc21 [E134, 1-[2-(3,3-dimethyl-2-oxo-2,3-dihydro-1H-indol-6-ylamino)-[1,2,4]triazolo[1,5-a]pyrazin-8-yl]-2,3-dihydro-1H-indole-6-carbonitrile]

- IC50 (SYK): < 100 nM
SMILES: CC1(C)C(=O)Nc2cc(Nc3nc4c(N5CC[C@@]6(O)CCCC[C@H]6C5)nccn4n3)ccc21 [E136, 6-[8-((4aS,8aS)-4a-hydroxy-octahydro-isoquinolin-2-yl)-[1,2,4]triazolo[1,5-a]pyrazin-2-ylamino]-3,3-dimethyl-1,3-dihydro-indol-2-one]

- IC50 (SYK): < 100 nM
SMILES: CC1Cc2ccccc2N1c1nccn2nc(Nc3ccc4c(c3)NC(=O)C4(C)C)nc12 (stereo not shown) [E137, 3,3-dimethyl-6-[8-(2-methyl-2,3-dihydro-indol-1-yl)-[1,2,4]triazolo[1,5-a]pyrazin-2-ylamino]-1,3-dihydro-indol-2-one]

- IC50 (SYK): 100 to 300 nM
SMILES: CN(C)CC1(O)CCCN(c2nccn3nc(Nc4ccc5c(c4)NC(=O)C5(C)C)nc23)CC1 (stereo not shown) [E138, 6-[8-(4-dimethylaminomethyl-4-hydroxy-azepan-1-yl)-[1,2,4]triazolo[1,5-a]pyrazin-2-ylamino]-3,3-dimethyl-1,3-dihydro-indol-2-one]

- IC50 (SYK): < 100 nM
SMILES: CN(C)c1ccc(-c2nccn3nc(Nc4ccc5c(c4)NC(=O)C5(C)C)nc23)cn1 [E139, 6-[8-(6-dimethylamino-pyridin-3-yl)-[1,2,4]triazolo[1,5-a]pyrazin-2-ylamino]-3,3-dimethyl-1,3-dihydro-indol-2-one]

- IC50 (SYK): < 100 nM
SMILES: CC1(C)C(=O)Nc2cc(Nc3nc4c(-c5cnn(C(C)(C)C)c5)nccn4n3)ccc21 [E140, 6-[8-(1-tert-butyl-1H-pyrazol-4-yl)-[1,2,4]triazolo[1,5-a]pyrazin-2-ylamino]-3,3-dimethyl-1,3-dihydro-indol-2-one]

- IC50 (SYK): 100 to 300 nM
SMILES: CC1(C)C(=O)Nc2cc(Nc3nc4c(N5CCC6(CCNCC6)C5=O)nccn4n3)ccc21 [E141, 2-[2-(3,3-dimethyl-2-oxo-2,3-dihydro-1H-indol-6-ylamino)-[1,2,4]triazolo[1,5-a]pyrazin-8-yl]-2,8-diaza-spiro[4.5]decan-1-one]

- IC50 (SYK): < 100 nM
SMILES: CC1(C)C(=O)Nc2cc(Nc3nc4c(-c5ccc6c(c5)OCCO6)nccn4n3)ccc21 [E142, 6-[8-(2,3-dihydro-benzo[1,4]dioxin-6-yl)-[1,2,4]triazolo[1,5-a]pyrazin-2-ylamino]-3,3-dimethyl-1,3-dihydro-indol-2-one]

- IC50 (SYK): 100 to 300 nM
SMILES: CN1CCC(C)(C)c2cc(-c3nccn4nc(Nc5ccc6c(c5)NC(=O)C6(C)C)nc34)ccc21 [E143, 3,3-dimethyl-6-[8-(1,4,4-trimethyl-1,2,3,4-tetrahydro-quinolin-6-yl)-[1,2,4]triazolo[1,5-a]pyrazin-2-ylamino]-1,3-dihydro-indol-2-one]

- IC50 (SYK): < 100 nM
SMILES: CN1CCOc2cc(-c3nccn4nc(Nc5ccc6c(c5)NC(=O)C6(C)C)nc34)cnc21 [E144, 3,3-dimethyl-6-[8-(4-methyl-3,4-dihydro-2H-pyrido[3,2-b][1,4]oxazin-7-yl)-[1,2,4]triazolo[1,5-a]pyrazin-2-ylamino]-1,3-dihydro-indol-2-one]

- IC50 (SYK): < 100 nM
SMILES: CC1(C)C(=O)Nc2cc(Nc3nc4c(-c5cnn(CCO)c5)nccn4n3)ccc21 [E145, 6-{8-[1-(2-hydroxy-ethyl)-1H-pyrazol-4-yl]-[1,2,4]triazolo[1,5-a]pyrazin-2-ylamino)-3,3-dimethyl-1,3-dihydro-indol-2-one]

- IC50 (SYK): 300 to 3000 nM
SMILES: CC1(C)CCCc2ccc(-c3nccn4nc(Nc5ccc6c(c5)NC(=O)C6(C)C)nc34)cc21 [E146, 6-[8-(8,8-dimethyl-5,6,7,8-tetrahydro-naphthalen-2-yl)-[1,2,4]triazolo[1,5-a]pyrazin-2-ylamino]-3,3-dimethyl-1,3-dihydro-indol-2-one]

- IC50 (SYK): < 100 nM
SMILES: CC1(C)C(=O)Nc2cc(Nc3nc4c(-c5cnn(C6CCOCC6)c5)nccn4n3)ccc21 [E148, 3,3-dimethyl-6-{8-[1-(tetrahydro-pyran-4-yl)-1H-pyrazol-4-yl]-[1,2,4]triazolo[1,5-a]pyrazin-2-ylamino}-1,3-dihydro-indol-2-one]

- IC50 (SYK): < 100 nM
SMILES: CC1(C)C(=O)Nc2cc(Nc3nc4c(-c5cnoc5)nccn4n3)ccc21 [E149, 6-(8-isoxazol-4-yl-[1,2,4]triazolo[1,5-a]pyrazin-2-ylamino)-3,3-dimethyl-1,3-dihydro-indol-2-one]

- IC50 (SYK): < 100 nM
SMILES: CC1(C)C(=O)Nc2cc(Nc3nc4c(-c5cnn(C6CCNCC6)c5)nccn4n3)ccc21 [E150, 3,3-dimethyl-6-[8-(1-piperidin-4-yl-1H-pyrazol-4-yl)-[1,2,4]triazolo[1,5-a]pyrazin-2-ylamino]-1,3-dihydro-indol-2-one]

- IC50 (SYK): 300 to 3000 nM
SMILES: CN(c1cccc(C(N)=O)c1)c1nccn2nc(Nc3ccc4c(c3)NC(=O)C4(C)C)nc12 [E151, 3-{[2-(3,3-dimethyl-2-oxo-2,3-dihydro-1H-indol-6-ylamino)-[1,2,4]triazolo[1,5-a]pyrazin-8-yl]-methyl-amino}-benzamide]

- IC50 (SYK): 3000 to 50000 nM
SMILES: CC1(C)C(=O)Nc2cc(Nc3nc4c(-c5ccc(N(C(F)(F)F)C(F)(F)F)cc5)nccn4n3)ccc21 [E152, 6-{8-[4-(bis-trifluoromethyl-amino)-phenyl]-[1,2,4]triazolo[1,5-a]pyrazin-2-ylamino}-3,3-dimethyl-1,3-dihydro-indol-2-one]

- IC50 (SYK): < 100 nM
SMILES: CC1(C)C(=O)Nc2cc(Nc3nc4c(N5CCC6(CN[C@H](C(F)(F)F)C6)C5)nccn4n3)ccc21 (stereo partly drawn) [E153, 3,3-dimethyl-6-[8-((S)-8-trifluoromethyl-2,7-diaza-spiro[4.4]non-2-yl)-[1,2,4]triazolo[1,5-a]pyrazin-2-ylamino]-1,3-dihydro-indol-2-one]

- IC50 (SYK): < 100 nM
SMILES: CC1(C)CCNc2cc(Nc3nc4c(N5CCN6C(=O)CNC(=O)C6C5)nccn4n3)ccc21 (stereo not shown) [E154, 8-[2-(4,4-dimethyl-1,2,3,4-tetrahydro-quinolin-7-ylamino)-[1,2,4]triazolo[1,5-a]pyrazin-8-yl]-hexahydro-pyrazino[1,2-a]pyrazine-1,4-dione]

- IC50 (SYK): < 100 nM
SMILES: Cn1cc(-c2nccc3nc(Nc4ccc5c(c4)NC(=O)CCC5(C)C)nn23)cn1 [E155, 5,5-dimethyl-8-[5-(1-methyl-1H-pyrazol-4-yl)-[1,2,4]triazolo[1,5-c]pyrimidin-2-ylamino]-1,3,4,5-tetrahydro-benzo[b]azepin-2-one]
